In patent US20180362449A1, “THE EXOCYST AS A NOVEL DRUG TARGET OF ENDOSIDIN2 AND APPLICATION AS A THERAPEUTIC” (The Regents of the University of California, priority 2015, published 2018):
Entries after “also recorded” stand apart in the source; their conditions may differ.

Legend:
PIN2 localization = PIN2 localization in root cells of PIN2::PIN2:GFP seedlings; settings: for induction of PIN2 agglomerations / PIN2 localization: 40 μM, 2 hours
[1] = Stability of ES2 in water by 1H NMR; assay type: physicochemical; settings: 1H NMR over one week
Description: The ES2 molecule contains an N-acyl hydrazone group at its core, and could have the propensity for hydrolysis to 3-fluorobenzohydrazide and 4-hydroxy-3-iodo-5-methoxybenzaldehyde in aqueous solution (FIG. 10A). […] In addition, the activity of the two possible ES2 hydrolysis products in inducing PIN2 localization in late endosomal compartments was tested.

[2] = biological target: T1, EXO70A1 (amino acid residues 75-638) (Arabidopsis thaliana, UniProt Q9LZD3); test: STD-NMR of ES2 / analog8 with purified EXO70A1; assay type: binding; settings: EXO70A1, non-linear fit, read-out: Kd (mean ± SE)
T1 sequence (Q9LZD3 75-638): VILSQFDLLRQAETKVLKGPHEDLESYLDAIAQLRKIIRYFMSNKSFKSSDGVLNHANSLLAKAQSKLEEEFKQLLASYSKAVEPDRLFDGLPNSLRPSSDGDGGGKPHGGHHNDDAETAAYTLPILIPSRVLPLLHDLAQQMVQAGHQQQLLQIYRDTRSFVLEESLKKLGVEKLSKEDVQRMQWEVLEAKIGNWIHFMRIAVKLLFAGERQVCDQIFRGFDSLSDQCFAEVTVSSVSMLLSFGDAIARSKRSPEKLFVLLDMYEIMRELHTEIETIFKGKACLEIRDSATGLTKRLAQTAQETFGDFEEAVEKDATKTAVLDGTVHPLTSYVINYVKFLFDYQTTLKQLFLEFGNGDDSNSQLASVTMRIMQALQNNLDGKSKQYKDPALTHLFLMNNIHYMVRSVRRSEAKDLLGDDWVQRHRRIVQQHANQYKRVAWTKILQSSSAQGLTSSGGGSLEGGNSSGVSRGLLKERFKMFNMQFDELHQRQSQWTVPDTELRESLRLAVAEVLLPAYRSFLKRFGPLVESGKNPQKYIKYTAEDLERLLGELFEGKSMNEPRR

EXO70A1 = biological target: T2, EXO70A1 (Arabidopsis thaliana, UniProt Q9LZD3); assay type: binding; settings: in comparison to Bio-680 matrix and biotin controls
T2 construct: protein extracts from 16 days old seedlings grown from normal 0.5×MS agar media; from tissue; host or cells: Arabidopsis seedlings (16 days old), 16,000×g supernatant
T2 sequence (Q9LZD3 1-638): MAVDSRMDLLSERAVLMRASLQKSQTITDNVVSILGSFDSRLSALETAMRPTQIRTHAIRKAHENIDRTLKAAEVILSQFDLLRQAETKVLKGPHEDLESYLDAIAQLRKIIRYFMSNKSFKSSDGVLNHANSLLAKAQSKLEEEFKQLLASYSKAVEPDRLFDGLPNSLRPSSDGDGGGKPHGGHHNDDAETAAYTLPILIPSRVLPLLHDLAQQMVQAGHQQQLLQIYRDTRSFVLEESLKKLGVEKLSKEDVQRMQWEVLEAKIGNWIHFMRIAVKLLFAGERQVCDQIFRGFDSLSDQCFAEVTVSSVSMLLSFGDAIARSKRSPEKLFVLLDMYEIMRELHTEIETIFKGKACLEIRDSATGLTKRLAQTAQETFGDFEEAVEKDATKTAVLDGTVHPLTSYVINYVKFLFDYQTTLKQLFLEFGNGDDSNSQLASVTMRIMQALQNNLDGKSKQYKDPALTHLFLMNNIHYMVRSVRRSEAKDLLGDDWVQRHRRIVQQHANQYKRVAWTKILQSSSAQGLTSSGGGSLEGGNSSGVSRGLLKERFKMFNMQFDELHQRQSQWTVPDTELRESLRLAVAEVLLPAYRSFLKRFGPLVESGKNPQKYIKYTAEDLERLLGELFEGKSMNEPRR

## COc1cc(/C=N/NC(=O)c2ccc(N)cc2)ccc1O [Ana-680, 4-Amino-N′-[(E)-(4-hydroxy-3-methoxyphenyl)methylidene]benzohydrazide]
PIN2 localization
  induction of PIN2 agglomerations / PIN2 localization: did not

## COc1cc(/C=N/NC(=O)c2ccc(NC(=O)CCCC[C@@H]3SC[C@@H]4NC(=O)N[C@@H]43)cc2)ccc1O [Bio-680, N-(4-((E)-2-(4-hydroxy-3-methoxybenzylidene)hydrazinecarbonyl)phenyl)-5-((3aS,4S,6aR)-2-oxohexahydro-1H-thieno[3,4-d]imidazol-4-yl)pentanamide]
PIN2 localization
  induction of PIN2 agglomerations / PIN2 localization: inactive; also recorded: did not

## COc1cc(/C=N/NC(=O)c2cccc(F)c2)cc(I)c1O [ES2]
[1]
  stability in water solution (hydrolysis): no hydrolysis products were observed
PIN2 localization; 40 μM ES2, 2 hours, light
  maximum feret diameter of PIN2-localized compartments: 2.9 μm
  minimal feret diameter of PIN2-localized compartments: 0.4 μm
PIN2 localization; 40 μM ES2, 2 hours, light, N=391
  feret diameter of PIN2-localized compartments (mean±SD): 1.18±0.47 μm
[2]
  Kd: 400 ± 170 µM

## COc1cc(/C=N/NC(=O)c2ccc(NC(=O)CCCC[C@@H]3SC[C@@H]4NC(=O)N[C@@H]43)c(F)c2)cc(I)c1O [Bio-688, N-(2-fluoro-4-((E)-2-(4-hydroxy-3-iodo-5-methoxybenzylidene)hydrazinecarbonyl)phenyl)-5-((3aS,4S,6aR)-2-oxohexahydro-1H-thieno[3,4-d]imidazol-4-yl)pentanamide]
PIN2 localization
  induction of PIN2 agglomerations / PIN2 localization: active; also recorded: induced PIN2 agglomerations
EXO70A1
  pull down of EXO70A1 (western blot band intensity): more potent in pulling down EXO70A1

## COc1cc(/C=N/NC(=O)c2ccc(N)c(F)c2)cc(I)c1O [Ana-688, 4-Amino-3-fluoro-N′-[(E)-(4-hydroxy-3-iodo-5-methoxyphenyl)methylidene]benzohydrazide]
PIN2 localization
  induction of PIN2 agglomerations / PIN2 localization: induced PIN2 agglomerations
